Laboratory results from patent US5036098A, “Butynylamine derivatives and their production” (Nippon Shinyaku Co., Ltd., priority 1988, dated 1991).
Counter-ions that a name gives are not always drawn.

What was measured:
in vivo = conditions: rat, iv, 3 mg/kg
Method: 4. Concentration of unchanged drug in the serum
A drug being tested was administered to an SD rat (male; 280 to 360 g) in a dose of 3 mg/kg (i.v.), blood samples were taken out at predetermined intervals, and the change in the concentration of said drug left unchanged in the serum was measured.

[1] = prior art statement; cited from earlier work
[2] = molecular target: detrusor muscles of excised rabbit bladder (Oryctolagus cuniculus, UniProt G1U308)
Chain of detrusor muscles of excised rabbit bladder (Oryctolagus cuniculus, UniProt G1U308) (G1U308 entry or part of it): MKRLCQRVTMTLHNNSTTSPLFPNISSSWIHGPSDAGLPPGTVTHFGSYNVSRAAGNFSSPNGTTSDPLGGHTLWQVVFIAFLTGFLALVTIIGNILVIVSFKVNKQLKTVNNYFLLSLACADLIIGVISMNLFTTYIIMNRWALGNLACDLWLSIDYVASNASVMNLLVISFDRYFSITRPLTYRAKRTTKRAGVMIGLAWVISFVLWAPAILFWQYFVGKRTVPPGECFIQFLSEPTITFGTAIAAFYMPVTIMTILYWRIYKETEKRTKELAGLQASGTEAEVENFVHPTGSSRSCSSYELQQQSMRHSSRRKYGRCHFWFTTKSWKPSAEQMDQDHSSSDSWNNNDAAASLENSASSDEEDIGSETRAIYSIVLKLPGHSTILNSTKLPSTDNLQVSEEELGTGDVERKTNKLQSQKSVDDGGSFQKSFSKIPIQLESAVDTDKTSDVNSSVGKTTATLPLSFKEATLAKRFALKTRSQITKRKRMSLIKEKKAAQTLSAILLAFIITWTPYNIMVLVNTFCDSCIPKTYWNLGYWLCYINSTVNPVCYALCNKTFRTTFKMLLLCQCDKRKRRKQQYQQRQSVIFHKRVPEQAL
Description: 1. Action upon detrusor muscles of excised rabbit bladder
(1) Anticholinergic action
The specimens were contracted by carbachol cumulation, and a reaction curve with respect to carbachol concentration was obtained.

rat bladder = conditions: for Frequency (cycles of contraction per minute), 0.1 mg/kg (i.v.) / Frequency (cycles of contraction per minute), 0.3 mg/kg (i.v.) / Frequency (cycles of contraction per minute), 1.0 mg/kg (i.v.) / Frequency (cycles of contraction per minute), 3.0 mg/kg (i.v.): 0 to 15 minutes, cumulative administration; for Frequency (cycles of contraction per minute), 1.0 mg/kg (i.v.): *p < 0.05; for Frequency (cycles of contraction per minute), 3.0 mg/kg (i.v.): **p < 0.01; for Frequency (cycles of contraction per minute), before administration: before administration (baseline); for action to suppress the frequency of contraction: i.v., cumulative, result in words
[3] = system: detrusor muscles of excised rabbit bladder; assay: Ca++ antagonism upon detrusor muscles of excised rabbit bladder (calcium chloride contraction); conditions: for pA2 value, Ca++ Antagonism: calcium chloride cumulation, Ca++-free, high KCl-modified Krebs' solution, excised rabbit detrusor
Acute toxicity = assay: Acute toxicity; design: species or system mice; conditions: mouse, in vivo, po; mortality one week later, method of Weil
Method: ddY-Mice (male; 6 to 7 week age) were used as test animals (each group consisting of four mice). Each of the mice was fasted from the previous day (16 to 18 hours before), a drug being tested was orally administered by using a gastric tube, and LD50 value was calculated from the mortality one week later according to the method of Weil.

CCN(CC)CC#CCOC(=O)C(O)(c1ccccc1)C1CCCCC1 (centres unmarked) [Oxybutynin, oxybutynin, reference compound]
half-life (in vivo): 16.8 min | side effects [1]: exhibits side effects such as thirst | Kb [2]: 2.75 nM | Frequency (cycles of contraction per minute), 0.1 mg/kg (i.v.) (rat bladder): 1.1 ± 0.2 cycles of contraction per minute | Frequency (cycles of contraction per minute), 0.3 mg/kg (i.v.) (rat bladder): 1.0 ± 0.2 cycles of contraction per minute | Frequency (cycles of contraction per minute), 1.0 mg/kg (i.v.) (rat bladder): 1.2 ± 0.1 cycles of contraction per minute | Frequency (cycles of contraction per minute), 3.0 mg/kg (i.v.) (rat bladder): 1.2 ± 0.2 cycles of contraction per minute | Frequency (cycles of contraction per minute), before administration (rat bladder): 1.0 ± 0.1 cycles of contraction per minute | action to suppress the frequency of contraction (rat bladder): no such action was observed | pA2 value, Ca++ Antagonism [3]: 5.80

CCN(CC)CC#CC(C)(C)OC(=O)C(O)(c1ccccc1)C1CCCCC1 (stereo not drawn) [Example 4, 4-diethylamino-1.1-dimethyl-2-butynyl α-cyclohexylα-phenylglycolate hydrochloride]
LD50 at 168 h (Acute toxicity): 841 mg/kg | half-life (in vivo): 51 min | Kb [2]: 46.8 nM | anticholinergic action compared with oxybutynin ([2]; ratio to oxybutynin): 1/17 | Frequency (cycles of contraction per minute), 0.1 mg/kg (i.v.) (rat bladder): 1.1 ± 0.3 cycles of contraction per minute | Frequency (cycles of contraction per minute), 0.3 mg/kg (i.v.) (rat bladder): 0.8 ± 0.2 cycles of contraction per minute | Frequency (cycles of contraction per minute), 1.0 mg/kg (i.v.) (rat bladder): 0.3 ± 0.1 cycles of contraction per minute | Frequency (cycles of contraction per minute), 3.0 mg/kg (i.v.) (rat bladder): 0.0 ± 0.0 cycles of contraction per minute | minimal effective dose (rat bladder; Rattus norvegicus, iv, read-out: doses showing action to suppress the frequency of contraction): ≥ 0.1 mg/kg | Frequency (cycles of contraction per minute), before administration (rat bladder): 1.3 ± 0.3 cycles of contraction per minute | action to suppress the frequency of contraction (rat bladder): dose-dependent action to suppress the frequency of contraction | pA2 value, Ca++ Antagonism [3]: 6.72 | Ca++ antagonism compared with oxybutynin ([3]; ratio to oxybutynin): 8.3 times
